What was measured:
PRAS40 (T246) = test: Phospho-PRAS40 (T246) in PC-3 cell lysates, MSD (Compound 2); assay type: cell-based; conditions: Homo sapiens; PC-3, 1 hour; read-out: mTORC2 PRAS40 (T246) IC50
Procedure: The direct substrate for mTORC1 was 4E-BP1(T46) and the indirect downstream substrate was S6RP (S235/S236). The direct substrate for mTORC2 was AKT (S473) and the indirect downstream substrates measured were GSK3β(S9) and PRAS40 (T246). Additionally, the phosphorylation status of AKT (T308), a phosphorylation site for PDK1, was monitored. Concentration-response curves were plotted and IC50 values determined. Cells were plated in 96-well flat bottom plates at the required density (PC-3 cells/well) and the cells were allowed to equilibrate at 37° C., 5% CO2 overnight. […] After the incubation period, the culture media was removed carefully with an aspirator. The plate was placed on ice and 50 μL of 1× Tris Lysis Buffer was added to each well. The plate was placed on a shaker at 4° C. for 1 hour to lyse the cells. At that point, the plate was either frozen at -80° C. for later analysis or immediately assayed for phosphoproteins as described below. To monitor interassay variability, a reference standard was included in the assay for PC-3 cells and the coefficient of variation for assay of […]) was 9.3% (n=50) and for assay of p-AKT (S473) was 28.6% (n=50). The assay plate was incubated with 150 μL of MSD Blocking Buffer for 1 hour with shaking at room temperature. […] Then 150 μL of 1×MSD Read Buffer T was added to each well. The plate was read on the SECTOR Imager plate reader.

PRAS40(T246) = test: Phospho-PRAS40(T246) in PC3 cell lysates, Luminex multiplex; assay type: cell-based, human; conditions: PC3, 1 hour exposure; read-out: p-PRAS40 (T246) IC50
Text: The direct substrate for TORC1 was 4E-BP 1(T46) and indirect downstream substrate was S6RP(S235/S236). The direct substrate for TORC2 was Akt(S473) and indirect downstream substrates measured were GSK3β(S9) and PRAS40(T246). Additionally, the phosphorylation status of Akt(T308), a phosphorylation site for PDK1 was monitored.
The multiplex Luminex assay format differs from conventional enzyme-linked immunosorbent assay (ELISA) in that the multiplex capture antibody is attached to a polystyrene bead whereas the ELISA capture antibody is attached to the microplate well. The use of the suspension bead-based technology enables the multiplexing capabilities of the Luminex assays. The xMAP® technology uses 5.6 micron polystyrene microspheres, which are internally dyed with red and infrared fluorophores of differing intensities. Each bead is given a unique number, or bead region, allowing differentiation of one bead from another. Beads covalently bound to different specific antibodies can be mixed in the same assay, utilizing a 96-well microplate format. At the completion of the sandwich immunoassay, beads can be read, using the Luminex 100™ or Luminex 200 detection system, in single-file by dual lasers for classification and quantification of each analyte. […]

[1] = 5-day tolerability study of Compound 1 in PC3 tumor-bearing mice (body weight); assay type: in vivo, SCID mice
Procedure: Plasma and tumor samples were collected 24 hours after the last dose in each dose group.
Mice were monitored daily for clinical signs and body weight changes. At the end of the study, mice were euthanized and plasma and tumor samples were collected for PK/PD determination. PD markers, pS6 and pAkt, were measured using MSD technology.
Initial body weights were recorded prior to the initiation of treatment using a digital scale. The percent body weight change during the course of the study was calculated using initial body weight measurements. Body weights of each animal were measured twice a week at the same time that tumor measurements were taken. Body weights were measured more frequently if significant decreases were noted during the course of the study.
In preparation for xenograft studies, a 5-day tolerability study was performed. […] The animals in the 50 mg/kg dose group lost >17% of the starting body weight by Day 5 (24 hours after the 4th dose). The animals in this group were euthanized. By Day 6 (24 hours after the 5th dose), the animals in the 25 mg/kg and 10 mg/kg groups lost 9% and 4%, respectively, of the starting body weight.

IC50 (PRAS40 (T246)) [nM]	IC50 (PRAS40(T246)) [nM]	SMILES	loss of starting body weight ([1]; 10 mg/kg QD oral, Day 6 (24 hours after the 5th dose)) [%]	loss of starting body weight ([1]; 25 mg/kg QD oral, Day 6 (24 hours after the 5th dose)) [%]	loss of starting body weight ([1]; 50 mg/kg QD oral, Day 5 (24 hours after the 4th dose)) [%]
49		CCN1C(=O)CNc2ncc(-c3ccc(-c4nc[nH]n4)nc3C)nc21 [Compound 2, 1-ethyl-7-(2-methyl-6-(1H-1,2,4-triazol-3-yl)pyridin-3-yl)-3,4-dihydropyrazino[2,3-b]pyrazin-2(1H)-one]			
	140	CO[C@H]1CC[C@H](N2C(=O)CNc3ncc(-c4ccc(C(C)(C)O)nc4)nc32)CC1 [Compound 1, 7-(6-(2-hydroxypropan-2-yl)pyridin-3-yl)-1-((1r,4r)-4-methoxycyclohexyl)-3,4-dihydropyrazino-[2,3-b]pyrazin-2(1H)-one]	4	9	> 17
